This experiment deals with T1, human HPK1 (MAP4K1) (Homo sapiens, UniProt Q92918).
T1 construct: Recombinant human HPK1 kinase domain was obtained from ThermoFisher (Cat. #PV6357) and SignalChem (Cat. #M23-11G); purchased ThermoFisher; SignalChem PV6357; M23-11G
T1 sequence (Q92918 17-274 limits assumed): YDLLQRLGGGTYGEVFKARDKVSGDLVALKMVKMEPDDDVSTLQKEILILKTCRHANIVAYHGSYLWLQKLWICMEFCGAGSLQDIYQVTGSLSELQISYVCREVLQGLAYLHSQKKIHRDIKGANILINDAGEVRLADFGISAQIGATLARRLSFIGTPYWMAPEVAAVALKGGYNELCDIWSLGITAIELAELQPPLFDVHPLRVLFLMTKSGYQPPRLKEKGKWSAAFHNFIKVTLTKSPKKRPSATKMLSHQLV
As to the kind of experiment: Biochemical assay for activity against HPK1 (ADP-Glo, MBP substrate). The note with it: recombinant human HPK1 kinase domain, 1 nM enzyme, ADP-Glo luminescence. In outline:
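IC50s come from ADP-Glo luminescence after a 2 h room-temperature reaction phosphorylating MBP in the presence of ATP. Compound was first preincubated 15 min with 1 nM HPK1 kinase domain, human recombinant. Buffer: 50 mM HEPES pH 7.5, 150 mM NaCl, 3 mM TCEP, 10 mM MgCl2, 0.005% Tween-20, 0.01% BSA.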

The structures appear in SMILES notation. Where a name gives a salt, the structure may show the parent alone. A value given as a limit tells only on which side of the number the result lay.

For `COc1cc2c(cc1Nc1ncc3cnn(CC4CCCOC4)c3n1)CN(C)CC2` (racemic) [Example 200, (S)-6-methoxy-2-methyl-N-(1-((tetrahydro-2H-pyran-3-yl)methyl)-1H-pyrazolo[3,4-d]pyrimidin-6-yl)-1,2,3,4-tetrahydroisoquinolin-7-amine and (R)-6-methoxy-2-methyl-N-(1-((tetrahydro-2H-pyran-3-yl)methyl)-1H-pyrazolo[3,4-d]pyrimidin-6-yl)-1,2,3,4-tetrahydroisoquinolin-7-amine racemic mixture], the IC50 (as a rule, the concentration at which inhibition is half-maximal) was below 100 nM. Next, `CC(C)n1ncc2cnc(Nc3ccc4c(c3)CN(C)CC4)nc21` [Example 101, N-(1-isopropyl-1H-pyrazolo[3,4-d]pyrimidin-6-yl)-2-methyl-1,2,3,4-tetrahydroisoquinolin-7-amine]: below 100 nM. The figure for `COc1cc2c(cc1Nc1ncc3cnn([C@H]4C[C@](C)(C(=O)O)C4)c3n1)CN(C)CC2` [Example 71, 3-[6-[(6-methoxy-2-methyl-3,4-dihydro-1H-isoquinolin-7-yl)amino]pyrazolo[3,4-d]pyrimidin-1-yl]-1-methyl-cyclobutanecarboxylic acid] is below 100 nM. Next, `COc1cc2c(cc1Nc1ncc3cnn(C4CCC(C)(CO)CC4)c3n1)CN(C)CC2` (mixture of isomers) [Example 75, [4-[6-[(6-methoxy-2-methyl-3,4-dihydro-1H-isoquinolin-7-yl)amino]pyrazolo[3,4-d]pyrimidin-1-yl]-1-methyl-cyclohexyl]methanol]: above 251 nM. `COc1cc2c(cc1Nc1ncc3cnn(C[C@@H]4CCCN4C(C)=O)c3n1)CN(C(C)C)CC2` [Example 196, (S)-1-(2-((6-((2-isopropyl-6-methoxy-1,2,3,4-tetrahydroisoquinolin-7-yl)amino)-1H-pyrazolo[3,4-d]pyrimidin-1-yl)methyl)pyrrolidin-1-yl)ethan-1-one hydrochloride]: the IC50 is below 100 nM. Next, `CN1CCc2ccc(Nc3ncc4cnn(CCS(C)(=O)=O)c4n3)cc2C1` [Example 150, 2-methyl-N-(1-(2-(methylsulfonyl)ethyl)-1H-pyrazolo[3,4-d]pyrimidin-6-yl)-1,2,3,4-tetrahydroisoquinolin-7-amine]: below 100 nM. Take `COc1cc2c(cc1Nc1ncc3cnn([C@H]4CC[C@H](NC(=O)CO)CC4)c3n1)CN(C)CC2` [Example 74, trans-2-hydroxy-N-[4-[6-[(6-methoxy-2-methyl-3,4-dihydro-1H-isoquinolin-7-yl)amino]pyrazolo[3,4-d]pyrimidin-1-yl]cyclohexyl]acetamide]: the IC50 is below 100 nM. As for `COc1cc2c(cc1Nc1ncc3cnn(C[C@@H]4CCN4C(C)=O)c3n1)CN(C)CC2` [Example 133, (S)-1-(2-((6-((6-methoxy-2-methyl-1,2,3,4-tetrahydroisoquinolin-7-yl)amino)-1H-pyrazolo[3,4-d]pyrimidin-1-yl)methyl)azetidin-1-yl)ethan-1-one], the IC50 was 100 to 250 nM.

`CN1CCc2ccc(Nc3ncc4cnn([C@@H]5CCOC5)c4n3)cc2C1` [Example 20, (R)-2-methyl-N-(1-(tetrahydrofuran-3-yl)-1H-pyrazolo[3,4-d]pyrimidin-6-yl)-1,2,3,4-tetrahydroisoquinolin-7-amine]: the IC50 is below 100 nM. Next, `COc1cc2c(cc1Nc1ncc3cnn(C4CCN(C(=O)C(F)(F)F)CC4)c3n1)CN(C)CC2` [Example 107, 2,2,2-trifluoro-1-(4-(6-((6-methoxy-2-methyl-1,2,3,4-tetrahydroisoquinolin-7-yl)amino)-1H-pyrazolo[3,4-d]pyrimidin-1-yl)piperidin-1-yl)ethan-1-one trifluroacetate]: 100 to 250 nM; `COc1cc2c(cc1Nc1ncc3cnn(CC4(C)CC4)c3n1)CN(C)CC2` [Example 203, 6-methoxy-2-methyl-N-(1-((1-methylcyclopropyl)methyl)-1H-pyrazolo[3,4-d]pyrimidin-6-yl)-1,2,3,4-tetrahydroisoquinolin-7-amine]: below 100 nM. On to `COc1cc2c(cc1Nc1ncc3c(C)nn(C4COC4)c3n1)CN(C)CC2` [Example 3, 6-methoxy-2-methyl-N-[3-methyl-1-(oxetan-3-yl)pyrazolo[3,4-d]pyrimidin-6-yl]-3,4-dihydro-1H-isoquinolin-7-amine], for which the IC50 was below 100 nM. Next, `COc1cc2c(cc1Nc1ncc3cnn(C(C)C)c3n1)CN(C)CC2` [Example 104, N-(1-isopropylpyrazolo[3,4-d]pyrimidin-6-yl)-6-methoxy-2-methyl-3,4-dihydro-1H-isoquinolin-7-amine]: below 100 nM; `COc1cc2c(cc1Nc1ncc3cnn(C[C@@H]4CCC[C@H]4C(=O)O)c3n1)CN(C)CC2` [Example 157, (1R,2R)-2-[[6-[(6-methoxy-2-methyl-3,4-dihydro-1H-isoquinolin-7-yl)amino]pyrazolo[3,4-d]pyrimidin-1-yl]methyl]cyclopentanecarboxylic Acid]: below 100 nM; `COc1nc2c(cc1Nc1ncc3cnn(C[C@@H]4CC[C@@H](C)N4C(C)=O)c3n1)CN(C)CC2` [Example 173, 1-[(2S,5R)-2-[[6-[(2-methoxy-6-methyl-7,8-dihydro-5H-1,6-naphthyridin-3-yl)amino]pyrazolo[3,4-d]pyrimidin-1-yl]methyl]-5-methyl-pyrrolidin-1-yl]ethenone Methanesulfonic Acid]: below 100 nM.

`COc1cc2c(cc1Nc1ncc3cnn(C[C@@H]4CCCN4C(C)=O)c3n1)CN(C)CC2` [Example 110, (S)-1-(2-((6-((6-methoxy-2-methyl-1,2,3,4-tetrahydroisoquinolin-7-yl)amino)-1H-pyrazolo[3,4-d]pyrimidin-1-yl)methyl)pyrrolidin-1-yl)ethan-1-one]: the IC50 is below 100 nM. Turning to `COc1nc2c(cc1Nc1ncc3cnn(C[C@@H]4CCC(C)(C)N4C(C)=O)c3n1)CN(C)CC2` [Example 177, 1-[(5S)-5-[[6-[(2-methoxy-6-methyl-7,8-dihydro-5H-1,6-naphthyridin-3-yl)amino]pyrazolo[3,4-d]pyrimidin-1-yl]methyl]-2,2-dimethyl-pyrrolidin-1-yl]ethenone], the IC50 is below 100 nM.

For `COc1cc2c(cc1Nc1ncc3cnn([C@H](C)CCO)c3n1)CN(C)CC2` [Example 99, (3R)-3-[6-[(6-methoxy-2-methyl-3,4-dihydro-1H-isoquinolin-7-yl)amino]pyrazolo[3,4-d]pyrimidin-1-yl]butan-1-ol], the IC50 is below 100 nM. As to `COc1cc2c(cc1Nc1ncc3cnn(C[C@H]4CC[C@H](O)CC4)c3n1)CN(C)CC2` [Example 199, (trans)-4-((6-((6-methoxy-2-methyl-1,2,3,4-tetrahydroisoquinolin-7-yl)amino)-1H-pyrazolo[3,4-d]pyrimidin-1-yl)methyl)cyclohexan-1-ol hydrochloride], the IC50 was below 100 nM. The figure for `COc1nc2c(cc1Nc1ncc3cnn(C[C@@H]4C[C@H](F)CN4C(C)=O)c3n1)CN(C)CC2` [Example 212, 1-[(2S,4S)-4-fluoro-2-[[6-[(2-methoxy-6-methyl-7,8-dihydro-5H-1,6-naphthyridin-3-yl)amino]pyrazolo[3,4-d]pyrimidin-1-yl]methyl]pyrrolidin-1-yl]ethenone] is below 100 nM; for `CN1CCc2ccc(Nc3ncc4cnn(CC5COC5)c4n3)cc2C1` [Example 14, 2-methyl-N-(1-(oxetan-3-ylmethyl)-1H-pyrazolo[3,4-d]pyrimidin-6-yl)-1,2,3,4-tetrahydroisoquinolin-7-amine] it is below 100 nM. The figure for `CC(=O)N1CCC[C@H]1Cn1ncc2cnc(Nc3ccc4c(c3)CN(C)CC4)nc21` [Example 139, (S)-1-(2-((6-((2-methyl-1,2,3,4-tetrahydroisoquinolin-7-yl)amino)-1H-pyrazolo[3,4-d]pyrimidin-1-yl)methyl)pyrrolidin-1-yl)ethan-1-one] is below 100 nM; for `COC(=O)N[C@H](C)Cn1ncc2cnc(Nc3cc4c(cc3OC)CCN(C)C4)nc21` [Example 98, methyl N-[(1R)-2-[6-[(6-methoxy-2-methyl-3,4-dihydro-1H-isoquinolin-7-yl)amino]pyrazolo[3,4-d]pyrimidin-1-yl]-1-methyl-ethyl]carbamate] it is 100 to 250 nM. Next, `COc1cc2c(cc1Nc1ncc3cnn([C@H]4C[C@H](CO)C4)c3n1)CN(C)CC2` [Example 65, trans-[3-[6-[(6-methoxy-2-methyl-3,4-dihydro-1H-isoquinolin-7-yl)amino]pyrazolo[3,4-d]pyrimidin-1-yl]cyclobutyl]methanol]: below 100 nM; `COc1cc2c(cc1Nc1ncc3cnn(C[C@@H]4C[C@@H](F)CN4C(C)=O)c3n1)CN(C)CC2` [Example 145, 1-[(2S,4R)-4-fluoro-2-[[6-[(6-methoxy-2-methyl-3,4-dihydro-1H-isoquinolin-7-yl)amino]pyrazolo[3,4-d]pyrimidin-1-yl]methyl]pyrrolidin-1-yl]ethan-1-one]: 100 to 250 nM; `COc1cc2c(cc1Nc1ncc3cnn(C[C@@H]4COCCN4C(C)=O)c3n1)CN(C)CC2` [Example 129, (R)-1-(3-((6-((6-methoxy-2-methyl-1,2,3,4-tetrahydroisoquinolin-7-yl)amino)-1H-pyrazolo[3,4-d]pyrimidin-1-yl)methyl)morpholino)ethan-1-one trifluoroacetate]: below 100 nM.

These data come from US11918582B2 (RAPT Therapeutics, Inc., priority 2021, dated 2024).
